Patent US8163906B2, “Dihydroquinone and dihydronaphthridine inhibitors of JNK” (Roche Palo Alto, LLC, priority 2007, dated 2012)

Columns and labels:
Human JNK1α1 = Human JNK1α1 (Homo sapiens, UniProt P45983); experiment: JNK assay in vitro, phosphorylation of GST-ATF2 with [γ-33P] ATP (JNK1); assay type: biochemical; details: ATP at Km (6 μM), 1 μM ATF2, 30° C. 30 min; read-out: IC50 vs. JNK1
Description: (§1) JNK activity was measured by phosphorylation of GST-ATF2 (19-96) with [γ-^33P] ATP. […] Human JNK2α2 assay contains 1 nM enzyme, 1 μM ATF2, 8 μM ATP with 1 uCi [γ-^33P] ATP. Human JNK1α1 assay contains 2 nM enzyme, 1 μM ATF2, 6 μM ATP with 1 μCi [γ-^33P] ATP. […] ATP. The enzyme assay was carried out in the presence or absence of several compound concentrations. JNK and compound were pre-incubated for 10 min., followed by initiation of the enzymatic reaction by adding ATP and the substrate. The reaction mixture was incubated at 30° C. for 30 min. […] The incorporation of ^33P into ATF2 was quantified on a microplate scintillation counter (Packard Topcount). Compound inhibition potency on JNK was measured by IC50 value generated from ten concentration inhibition curves fitted into the 3-parameter model: % inhibition=Maximum/(1+(IC50/[Inhibitor])^slope). Data were analyzed on Microsoft Excel for parameter estimation.

Human JNK2α2 = Human JNK2α2 (Homo sapiens, UniProt P45984); experiment: JNK assay in vitro, phosphorylation of GST-ATF2 with [γ-33P] ATP (JNK2); assay type: biochemical; details: ATP at Km (8 μM), 1 μM ATF2, 30° C. 30 min
Human JNK2α2, sequence (P45984 whole entry): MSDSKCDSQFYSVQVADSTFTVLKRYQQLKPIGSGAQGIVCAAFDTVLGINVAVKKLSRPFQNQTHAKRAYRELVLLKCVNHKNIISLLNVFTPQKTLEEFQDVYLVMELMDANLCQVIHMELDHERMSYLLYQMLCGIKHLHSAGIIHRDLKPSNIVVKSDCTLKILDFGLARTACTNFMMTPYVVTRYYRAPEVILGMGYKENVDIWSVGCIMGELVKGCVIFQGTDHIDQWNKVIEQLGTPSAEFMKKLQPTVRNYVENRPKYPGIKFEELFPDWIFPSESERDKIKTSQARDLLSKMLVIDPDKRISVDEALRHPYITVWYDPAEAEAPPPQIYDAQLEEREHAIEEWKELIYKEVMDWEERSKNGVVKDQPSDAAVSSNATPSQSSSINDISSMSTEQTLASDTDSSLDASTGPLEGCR
Description: as §1

Human JNK1α1, sequence (P45983 1-384 isoform P45983-2): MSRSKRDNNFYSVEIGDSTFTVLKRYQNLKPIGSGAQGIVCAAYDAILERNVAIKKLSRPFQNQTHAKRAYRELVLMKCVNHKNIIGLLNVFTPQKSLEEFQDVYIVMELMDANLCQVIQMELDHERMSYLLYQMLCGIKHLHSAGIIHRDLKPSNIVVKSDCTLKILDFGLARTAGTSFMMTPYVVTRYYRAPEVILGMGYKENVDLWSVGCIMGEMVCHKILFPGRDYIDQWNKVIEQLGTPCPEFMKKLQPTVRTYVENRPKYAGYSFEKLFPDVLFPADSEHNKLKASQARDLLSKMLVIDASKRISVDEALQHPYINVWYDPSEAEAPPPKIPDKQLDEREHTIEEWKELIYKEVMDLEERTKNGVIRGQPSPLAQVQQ

Compound	IC50 (Human JNK1α1)	IC50 (Human JNK2α2)	melting point
CC(=O)c1c(Cc2ccc(S(=O)(=O)NCC(C)(C)O)cc2)c(=O)c2ccc(Cl)cc2n1-c1ccccc1 [Compound 88, 3-[4-(2-hydroxy-2-methylpropylsulfonamoyl)benzyl]-4-oxo-7-chloro-1-phenyl-2-acetyl-1,4-dihydroquinoline]	245 nM	840 nM	
COC(=O)c1c(Cc2ccc(Cl)nc2)c(=O)c2ccc(C)nc2n1-c1ccccc1 [Compound 83, 3-(6-chloro-pyridin-3-ylmethyl)-7-methyl-4-oxo-1-phenyl-1,4-dihydro[1,8]naphthyridine-2-carboxylic acid methyl ester]			220 to 220.5 °C
COC(=O)c1c(Cc2ccc(S(=O)(=O)N3CCNCC3(C)C)cc2)c(=O)c2ccc(F)cc2n1-c1ccccc1.Cl			211 to 212 °C
COC(=O)c1c(Cc2ccc(S(=O)(=O)NCC(O)CO)cc2)c(=O)c2ccc(Cl)cc2n1-c1ccccc1 (centres unmarked) [Compound 46, 7-chloro-3-[4-(2,3-dihydroxy-propylsulfamoyl)-benzyl]-4-oxo-1-phenyl-1,4-dihydroquinoline-2-carboxylic acid methyl ester]	45.4 nM	137 nM	
COC(=O)c1c(Cc2ccc(S(=O)(=O)N(C)CCO)cc2)c(=O)c2ccc(Cl)cc2n1-c1ccccc1 [Compound 59, 7-Chloro-3-{4-[(2-hydroxyethyl)-methyl-sulfamoyl]-benzyl}-4-oxo-1-phenyl-1,4-dihydroquinoline-2-carboxylic acid methyl ester]	22.6 nM	61.4 nM	
CCNC(=O)c1ccc(Cc2c(C(=O)OC)n(-c3ccccc3)c3nc(C)ccc3c2=O)cn1 [Compound 101, 3-(6-Ethylcarbamoyl-pyridin-3-ylmethyl)-7-methyl-4-oxo-1-phenyl-1,4-dihydro[1,8]naphthyridine-2-carboxylic Acid Methyl Ester]			208 to 209 °C
COC(=O)c1c(Cc2ccc(SCCO)cc2)c(=O)c2ccc(F)cc2n1-c1ccccc1 [Compound 111]			163 to 164 °C
COC(=O)c1c(CN2CCN(S(C)(=O)=O)CC2)c(=O)c2ccc(F)cc2n1-c1ccccc1 [Compound 131]			205 to 207 °C
COC(=O)c1c(Cc2ccc(S(=O)(=O)NCCO[Si](C)(C)C(C)(C)C)cc2)c(=O)c2ccc(Cl)cc2n1-c1ccccc1 [Compound 60, 3-{4-[2-(tert-Butyl-dimethyl-silanyloxy)-ethylsulfamoyl]-benzyl}-7-chloro-4-oxo-1-phenyl-1,4-dihydroquinoline-2-carboxylic acid methyl ester]	1630 nM	4980 nM	
COC(=O)c1c(Cc2ccc(C(=O)NCCO)cc2)c(=O)c2ccc(C(F)(F)F)nc2n1-c1ccccc1 [Compound 116]			170 to 173 °C
COC(=O)c1c(Cc2ccc(S(=O)(=O)N3CCN(C(=O)OC(C)(C)C)CC3)cc2)c(=O)c2ccc(F)cc2n1-c1ccccc1 [Compound 108]			120 to 121 °C
COC(=O)c1c(Cc2ccc(S(=O)(=O)N3CCOCC3)cc2)c(=O)c2ccc(Cl)cc2n1-c1ccccc1 [Compound 31, 7-Chloro-3-[4-(morpholine-4-sulfonyl)-benzyl]-4-oxo-1-phenyl-1,4-dihydroquinoline-2-carboxylic acid methyl ester]	52.9 nM	161 nM	
COC(=O)c1c(CN2CCn3c(nnc3C(F)(F)F)C2)c(=O)c2ccc(F)cc2n1-c1ccccc1 [Compound 134]			107 to 110 °C
C=CCn1c(C(=O)OC)c(Cc2ccc(S(C)(=O)=O)cc2)c(=O)c2ccc(C)nc21 [Compound 139]			168 to 169 °C
COC(=O)c1c(CN2CCS(=O)(=O)CC2)c(=O)c2ccc(F)cc2n1-c1ccccc1 [Compound 132]			119 to 120 °C
COC(=O)c1c(Cc2ccccc2)c(=O)c2ccc(Cl)cc2n1-c1ccccc1 [Compound 120]			200 to 201 °C
COC(=O)c1c(Cc2ccc(C(=O)CBr)cc2)c(=O)c2ccc(C)nc2n1-c1ccccc1 [Compound 89, 3-[4-(2-bromoacetyl)-benzyl]-7-methyl-4-oxo-1-phenyl-1,4-dihydro-[1,8]naphthyridine-2-carboxylic acid methyl ester]			189 to 191.1 °C
O=c1c(Cc2ccccc2)c(-c2ncco2)n(-c2ccccc2)c2cc(Cl)ccc12 [Compound 140, 3-benzyl-7-chloro-2-oxazol-2-yl-1-phenyl-1H-quinolin-4-one]			219 to 220 °C
COC(=O)c1c(CN2CCOCC2)c(=O)c2ccc(F)cc2n1-c1ccccc1 [Compound 123]			169 to 170 °C
COC(=O)c1c(Cc2ccc(S(C)(=O)=O)cc2)c(=O)c2ccc(C(F)(F)F)nc2n1-c1ccccc1 [Compound 115]			193 to 195 °C

Compound	IC50 (Human JNK1α1)	IC50 (Human JNK2α2)	melting point
COC(=O)c1c(Cc2cnc(OC)nc2)c(=O)c2ccc(F)cc2n1-c1ccccc1 [Compound 125]			206 to 207 °C
COC(=O)c1c(Cc2ccc(S(=O)(=O)C(C)CO)cc2)c(=O)c2ccc(F)cc2n1-c1ccccc1 (centres unmarked) [Compound 118]			193.6 to 194.9 °C
COC(=O)c1c(Cc2cnn(C)c2)c(=O)c2ccc(C(F)(F)F)nc2n1-c1ccccc1 [Compound 129, 3-(1-methyl-1H-pyrazol-4-ylmethyl)-1-4-oxo-phenyl-7-trifluoromethyl-1H-[1,8]naphthyridine-2-carboxylic acid methyl ester]	252 nM	562 nM	
COC(=O)c1c(CN2CCC(S(C)(=O)=O)CC2)c(=O)c2ccc(F)cc2n1-c1ccccc1 [Compound 126, 7-fluoro-3-(4-methanesulfonyl-piperidin-1-ylmethyl)-4-oxo-1-phenyl-1,4-dihydro-quinoline-2-carboxylic acid methyl ester]			190 to 191 °C
COC(=O)c1c(Cc2ccc(S(=O)(=O)N3CCNCC3)cc2)c(=O)c2ccc(F)cc2n1-c1ccccc1.Cl			214 to 215 °C
CCOC(=O)c1c(Cc2ccccc2)c(=O)c2ccc(Cl)cc2n1-c1ccccc1 [Compound 121]			179 to 180 °C
CNS(=O)(=O)c1ccc(Cc2c(C(=O)OC)n(-c3ccccc3)c3cc(Cl)ccc3c2=O)cc1 [Compound 44, 7-Chloro-3-(4-methylsulfamoyl-benzyl)-4-oxo-1-phenyl-1,4-dihydroquinoline-2-carboxylic acid methyl ester]	49.1 nM		
COC(=O)C(=O)NS(=O)(=O)c1ccc(Cc2c(C(=O)OC)n(-c3ccccc3)c3cc(Cl)ccc3c2=O)cc1 [Compound 64, 7-Chloro-3-[4-(methoxyoxalyl-sulfamoyl)-benzyl]-4-oxo-1-phenyl-1,4-dihydroquinoline-2-carboxylic acid methyl ester]	603 nM	2060 nM	
COC(=O)c1c(Cc2ccc(C#N)cc2)c(=O)c2ccc(F)cc2n1-c1ccccc1 [Compound 124]			218 to 219 °C
COC(=O)c1c(Cc2ccc(S(C)(=O)=O)nc2)c(=O)c2ccc(C)nc2n1-c1ccccc1 [Compound 92, 3-(6-Methanesulfonyl-pyridin-3-ylmethyl)-7-methyl-4-oxo-1-phenyl-1,4-dihydro[1,8]naphthyridine-2-carboxylic Acid Methyl Ester]			217 to 218 °C
COC(=O)c1c(CN2CCC(C#N)CC2)c(=O)c2ccc(F)cc2n1-c1ccccc1 [Compound 136]			159 to 160 °C
COC(=O)c1c(Cc2ccc(S(=O)(=O)N3CCN(C(=O)OC(C)(C)C)CC3(C)C)cc2)c(=O)c2ccc(F)cc2n1-c1ccccc1 [Compound 113]			116 to 117 °C
CCOC(=O)C1CCN(Cc2c(C(=O)OC)n(-c3ccccc3)c3cc(F)ccc3c2=O)CC1 [Compound 133]			136 to 137 °C
COC(=O)c1c(Cc2ccc(S(=O)(=O)C(C)CO)cc2)c(=O)c2ccc(C)nc2n1-c1ccccc1 (centres unmarked) [Compound 119]			195.9 to 197.2 °C
COC(=O)c1c(Cc2ccc(C(=O)N(C)C)nc2)c(=O)c2ccc(C)nc2n1-c1ccccc1 [Compound 103, 3-(6-Dimethylcarbamoyl-pyridin-3-ylmethyl)-7-methyl-4-oxo-1-phenyl-1,4-dihydro[1,8]naphthyridine-2-carboxylic Acid Methyl Ester]			235 to 236 °C
COC(=O)c1c(Cc2ccc(S(=O)(=O)CCO)cc2)c(=O)c2ccc(F)cc2n1-c1ccccc1 [Compound 112]			165 to 166 °C
COCCOC(=O)c1c(Cc2ccccc2)c(=O)c2ccc(F)cc2n1-c1ccccc1 [Compound 130, 3-Benzyl-7-fluoro-4-oxo-1-phenyl-1,4-dihydro-quinoline-2-carboxylic acid 2-methoxy-ethyl ester]			168 to 169 °C
COC(=O)c1ccc(Cc2c(C(=O)OC)n(-c3ccccc3)c3nc(C)ccc3c2=O)cn1 [Compound 100, 3-(6-Methoxycarbonyl-pyridin-3-ylmethyl)-7-methyl-4-oxo-1-phenyl-1,4-dihydro[1,8]naphthyridine-2-carboxylic Acid Methyl Ester]		226 nM	177 to 178 °C
COC(=O)c1c(Cc2ccc(OC)nc2)c(=O)c2ccc(C)nc2n1-c1ccccc1 [Compound 102, 3-(6-Methoxypyridin-3-ylmethyl)-7-methyl-4-oxo-1-phenyl-1,4-dihydro[1,8]naphthridine-2-carboxylic Acid Methyl Ester]			176 to 177 °C
